Reference: patent publication US6531512B1, “Method of treating cancer in patients having a deficiency in p53 tumor suppressor gene” (Health Research Inc., priority 1998, dated 2003)

Key:
[1] = system: SK-MEL-28 human melanoma cells; assay: Polyamine pools and analog accumulation in SK-MEL-28 cells; format: cell-based; conditions: SK-MEL-28 cells, 24 hours; for Analog (intracellular accumulation) / Polyamine Pools, Put / Polyamine Pools, Spd / Polyamine Pools, Spm: Table 4
Procedure: (§1) MALME-3M human melanoma cells were cultured as described in Example 1 and treated with 10 μM DENSPM or 10 μM spermine (SPM) as described in Example 4. SK-MEL-28 cells were also cultured as described in Example 1 and treated with 10 μM DENSPM as describe in Example 4. Untreated cells were used as a control.
(§2) After treatment with DENSPM or spermine, biochemical parameters including polyamine enzymes activity, polyamine pools and analog accumulation were monitored as described by Kramer et al, J. Biol. Chem., 270:2124-32 (1995) and Kramer et al., Cancer Res., 57:5521-5527 (1997). Polyamine enzyme activity was monitored for ornithine […] (ODC); S-adenosylmethionine decarboxylase (SAMDC); and spermidine/spermine N^1-acetyltransferase (SSAT). Polyamine pools was monitored for putrescine (Put); spermidine (Spd); and spermine (Spm).
(§3) Enzyme activity and polyamine pools were measured as described in Example 5.

[2] = system: spermidine/spermine N^1-acetyltransferase (SSAT); assay: Polyamine enzyme activity in treated melanoma cells: SSAT induction; format: cell-based, human; conditions: for Enzyme Activities, SSAT: Table 4
Procedure: as §1, §2, §3

[3] = system: ornithine decarboxylate (ODC); assay: Polyamine enzyme activity in treated melanoma cells: ODC; format: cell-based, human; conditions: for Enzyme Activities, ODC: SK-MEL-28 cells, 24 hours, Table 4
Procedure: as §1, §2, §3

[4] = system: SK-MEL-28 human melanoma cells; assay: Cell growth / apoptotic response of SK-MEL-28 cells (Coulter Counter, growth kinetics); format: cell-based; conditions: SK-MEL-28 cells; for % Control Growth: 24 hours, Table 4; for cell growth and/or apoptosis response: growth kinetic analysis
Procedure: (§4) MALME-3M human melanoma cells containing wt-p53 (American Tissue Type Culture Collection, Bethesda, Md.) and human SK-MEL-28 cells containing mt-p53 (American Tissue Type Culture Collection, Bethesda, Md.) were cultured as a monolayer in RPMI 1640 medium containing 10% Nu-Serum (Collaborative Research Products, Bedford, Mass.), 1 mM aminoguanidine, penicillin (50 units/ml) and streptomycin (50 μg/ml) as described by Kramer et al, J. Biol. Chem., 270:2124-32 (1995) and Kramer et al., Cancer Res., 57:5521-5527 (1997).
(§5) MALME-3M cells were cultured as described in Example 1. The cells were seeded by adding 1×10^5 cells to a T-25 vented cell culture flask. After 24 hours, the asynchronous cell cultures were treated with 10 μM N^1, N^11-diethylnorspermine (DENSPM) prepared by dissolving DENSPM in distilled water and sterilizing the solution by filtration through a 0.22 micron Millipore membrane. The cells were treated by continuous exposure to DENSPM for 6 days (i.e., the polyamine was added to the cell culture at T=0 and the culture was incubated for the desired amount of time). The number of viable MALME-3M cells were monitored electronically using a Model ZM Coulter Counter (Coulter Electronics, Hialeah, Fla.). Untreated MALME-3M cell cultures were used as controls.
(§6) MALME-3M human melanoma cells were cultured as described in Example 1 and treated continuously with 10 μM DENSPM or 10 μM spermine (SPM) for 48 hours. SK-MEL-28 cells were also cultured as described in Example 1 and treated with 10 μM DENSPM for 24 hours. Untreated cells were used as a control.
The effect of DENSPM and spermine on cell growth was monitored using a Coulter Counter (see Example 2). The effect on cell cycle was monitored by flow cytometry as described in Example 3. […]

[5] = system: S-adenosylmethionine decarboxylase (SAMDC); assay: Polyamine enzyme activity in treated melanoma cells: SAMDC; format: cell-based, human; conditions: MALME-3M (wt-p53), 10 μM, Table 2 (24 hours treatment)
Procedure: as §1, §2

[6] = system: MALME-3M human melanoma cells; assay: Polyamine pools in MALME-3M cells; format: cell-based; conditions: MALME-3M (wt-p53), 10 μM, Table 2 (24 hours treatment)
Procedure: as §1, §2

[7] = system: MALME-3M human melanoma cells; assay: Cell cycle distribution of MALME-3M cells by flow cytometry; format: cell-based; conditions: MALME-3M (wt-p53), asynchronous, 10 μM, 48 hours
Procedure: MALME-3M cells were cultured as described in Example 1 and treated with 10 μM DENSPM as described in Example 2. Cell cycle arrest was monitored using a FACScan flow cytometry unit (Becton Dickinson, San Jose, Calif.) according to the method of Krishan (1975) J. Cell Biol. 66:[…]. Untreated MALME-3M cell cultures were used as controls.
Cell cycle arrest of serum synchronized MALME-3M cells was also monitored using flow cytometry. MALME-3M cells were synchronized in G0/G1 by replacing cell culture media containing 10% NuSerum (see Example 1) with media lacking NuSerum and incubating the cultures for 120 hours. The synchronized cells were released by the addition of 10% NuSerum (control culture) or 10% NuSerum plus 10 μM DENSPM. The cells were then grown continuously in the presence of serum (control) or DENSPM for up to 96 hours. The untreated cells (control) re-established an asynchronous profile (i.e., progressed through the cell cycle) by 60 hours.
(§7) The effect of DENSPM and spermine on cell growth was monitored using a Coulter Counter (see Example 2). The effect on cell cycle was monitored by flow cytometry as described in Example 3.

[8] = system: MALME-3M human melanoma cells; assay: Cell growth of MALME-3M cells (Coulter Counter); format: cell-based; conditions: 10 μM
Procedure: as §4, §5, §6, §7

[9] = MALME-3M (wt-p53), 10 μM, Table 2 (24 hours treatment)

Row | SMILES | Analog (intracellular accumulation) [1] [pmol/10^6 cells] | Polyamine Pools, Put [1] [pmol/10^6 cells] | Polyamine Pools, Spd [1] [pmol/10^6 cells] | Polyamine Pools, Spm [1] [pmol/10^6 cells] | SSAT activity ([2]; SK-MEL-28 cells, 24 hours) | Enzyme Activities, SSAT ([2]; SK-MEL-28 cells, 24 hours) [pmol/min/mg protein] | Enzyme Activities, ODC [3] [pmol/hr/mg protein] | % Control Growth [4] [%] | cell growth and/or apoptosis response [4] | other results
1 | CCNCCCNCCCCNCCCNCC [DE-343, N^1,N^12-diethylspermine] | 5830 | 60 | 60 | 200 | 9,470 pmol/min/mg | 9470 | 23 | 59 | apoptotic response similar to that by DENSPM with a 24 hour delay | SSAT activity relative to DE-444 (times higher) ([2]; SK-MEL-28 cells): 10 times; SSAT activity relative to DENSPM (fold less) ([2]; SK-MEL-28 cells): about 3 fold
2 | CCNCCCCNCCCCNCCCNCC [DE-443, 3,7,12,17-tetraazanonadecane] | 5610 | 20 | 70 | 500 | 5,215 pmol/min/mg | 5215 | 32 | 77 | apoptotic response with a 48 hour delay | –
3 | CCNCCCCNCCCCNCCCCNCC [DE-444, N^1,N^14-diethylhomospermine] | 5950 | 20 | 120 | 1015 | 930 pmol/min/mg | 930 | 14 | 97 | cytostatic response | decrease in spermine pools [1]: 65%
4 | NCCCNCCCCNCCCN [SPM, spermine, reference compound] | – | – | – | – | – | – | – | – | – | SAMDC activity [5]: 20 pmol/hr/mg protein; SSAT activity [2, 9]: 210 pmol/min/mg; Polyamine Pools, Put [6]: <5 pmol/10^6 cells; Polyamine Pools, Spd [6]: 470 pmol/10^6 cells; Polyamine Pools, Spm [6]: 2430 pmol/10^6 cells; ODC activity [3, 9]: 175 pmol/hr/mg protein; % Total Cells at 48 hours, G1 [7]: 67%; % Total Cells at 48 hours, G2/M [7]: 10%; % Total Cells at 48 hours, S [7]: 23%; % Control Growth ([8]; MALME-3M (wt-p53), 48 hours): 96%; % Growth Control ([8]; MALME-3M (wt-p53), Table 2 (24 hours treatment)): 97%; effect on growth or cell cycle compared to control cells ([8]; MALME-3M, 48 hours): no effect
